According to article PMC10089289, “Well-Defined Heparin Mimetics Can Inhibit Binding of the Trimeric Spike of SARS-CoV-2 in a Length-Dependent Manner” (JACS Au, 2023):

Tests used:
[1] = molecular target: trimeric spike glycoprotein of SARS-CoV-2; assay: SPR competition assay: binding of SARS-CoV-2 spike trimer to heparin-immobilized sensor chip; details: 100 nM spike trimer, 25 °C, read-out: IC50, inhibition of binding of spike trimer to immobilized heparin (50% reduction in RUs)
Factor-Xa = assay: AT-III mediated Factor-Xa inhibition assay (Biophen Anti-Xa, two-stage chromogenic); format: biochemical, bovine; details: colorimetric, Biophen Anti-Xa kit
Description: (§1) To validate the SPR results, AT-III-mediated anti-Factor-Xa and anti-Factor-IIa activities of the mimetics and UFH were measured using a colorimetric assay (Biophen Anti-Xa and Anti-IIa kits, two-stage chromogenic assays) (Figures 6B and S16–S17).
(§2) AT-III mediated Factor-IIa inhibition assays: Anti-Factor IIa activity of mimetics (1 and 6) and UFH was determined by BIOPHENÔ ANTI-IIa (2 Stages Heparin Assay) kit following manufacturer’s instructions. Human antithrombin (AT-III), purified human thrombin (Factor IIa) and thrombin specific chromogenic substrate [CS-01(38)] were reconstituted and prepared in specific buffers in accordance with kit protocol. […] After exactly 2 min, the reaction was stopped by introducing citric acid (2 wt.%, 80 µL), mixed and absorbance at 405 nm (POLARstar Optima, BMG Labtech) against the corresponding blank was measured. […] Measured blank value were subtracted from the absorbance measured for the corresponding test. The IC50 values (Figures S16) were calculated using dose-response equations [nonlinear regression, log(inhibitor) vs. response-variable slope (four parameters)] built in Prism software 9 (GraphPad Software, Inc.). […]
(§3) AT-III mediated Factor-Xa inhibition assays: Anti-Factor Xa activity of mimetics (1 and 6) and UFH was determined by BIOPHENÔ ANTI-Xa (2 Stages Heparin Assay) kit following manufacturer’s instructions. […]

[2] = molecular target: SARS-CoV-2 Wuhan RBD binding to Vero E6 cells (Severe acute respiratory syndrome coronavirus 2, UniProt P0DTC2); format: cell-based
platelet factor 4 (PF4) = molecular target: T1, platelet factor 4 (PF4) (Homo sapiens, UniProt P02776); assay: SPR competition assay: binding of PF4 to heparin chip; details: 100 nM PF-4, 100 to 0.001 μg/mL
T1 construct: purchased Sino Biological, Inc
T1 sequence (P02776 32-101): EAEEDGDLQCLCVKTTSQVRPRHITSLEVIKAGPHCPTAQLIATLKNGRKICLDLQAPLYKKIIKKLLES
Text: (§4) A competition SPR method[32]−[34] was employed to examine the binding of compounds 1 and 6 to AT-III and PF4, and the results were compared to similar properties of UFH. First, biotinylated heparin was immobilized on a streptavidin-coated sensor chip, which was employed to establish equilibrium dissociation constants (KD) of AT-III and PF4 by employing different concentrations of these proteins as analytes (Figure S9). […] The determined KD values are in close agreement with literature reports.[34]−[36] Next, inhibition experiments were performed by premixing different concentrations of monovalent 1, tetravalent 6, and UFH with AT-III or PF4 followed by exposure to the sensor chip modified by heparin. […] The fact that tetravalent 6 does bind to PF4 supports the notion that it is a mimetic of heparin.
(§5) 6. Coagulation-related proteins SPR binding and competition studies
(§6) Coagulation-related proteins SPR binding studies: Human antithrombin-III (AT-III) was obtained from Haematologic technologies. […] Using Biacore T100 evaluation software, AT-III equilibrium dissociation constant (KD) was determined by fitting binding curves to two-state reaction model built in Biacore T100 evaluation software. For PF-4, steady-state affinity analysis was performed on the response curves of various PF-4 concentrations and KD value was calculated (Figure S9). […]

Factor-IIa (thrombin) = molecular target: T2, Factor-IIa (thrombin) (Homo sapiens, UniProt P00734); assay: AT-III mediated Factor-IIa inhibition assay (Biophen Anti-IIa, two-stage chromogenic); format: biochemical; details: colorimetric, Biophen Anti-IIa kit
T2 construct: purchased BIOPHEN ANTI-IIa (2 Stages Heparin Assay) kit
Description: as §1, §2, §3

Vero E6 cells = details: 100 μg/mL; 24 h incubation
[3] = molecular target: T3, antithrombin-III (AT-III) (Homo sapiens, UniProt P01008); assay: SPR competition assay: binding of AT-III to heparin chip; details: 100 nM AT-III, 100 to 0.001 μg/mL
T3 construct: purchased Haematologic technologies
T3 sequence (P01008 33-464): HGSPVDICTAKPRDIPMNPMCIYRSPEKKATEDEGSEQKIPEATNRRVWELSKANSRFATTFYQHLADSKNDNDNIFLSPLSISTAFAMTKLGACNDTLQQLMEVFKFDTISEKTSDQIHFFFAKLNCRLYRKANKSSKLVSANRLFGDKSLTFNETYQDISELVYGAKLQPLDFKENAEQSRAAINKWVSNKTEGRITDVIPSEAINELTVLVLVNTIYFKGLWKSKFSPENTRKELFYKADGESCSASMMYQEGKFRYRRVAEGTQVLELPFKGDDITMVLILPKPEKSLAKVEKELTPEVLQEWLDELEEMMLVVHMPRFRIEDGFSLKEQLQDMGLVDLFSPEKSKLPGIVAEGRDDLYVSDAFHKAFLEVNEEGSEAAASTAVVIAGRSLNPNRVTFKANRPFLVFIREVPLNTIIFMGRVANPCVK
Text: as §4, §5, §6

Row | SMILES | IC50 [1] [µM] | IC50, AT-III-mediated inhibition of Factor-Xa (Factor-Xa) [µg/mL] | Inhibition of trimeric RBD binding to Vero E6 cells ([2]; 125 μg/mL (62.6 μM), RBDs from Wuhan and delta) | Inhibition of Wuhan RBD binding to Vero E6 cells ([2]; RBD pretreated with 10 and 125 μg/mL compound) | IC50, inhibition of PF4 binding to heparin surface (platelet factor 4 (PF4)) | IC50, AT-III-mediated inhibition of Factor-IIa (Factor-IIa (thrombin)) | Cytotoxicity on Vero E6 cells (Vero E6 cells) | IC50, inhibition of AT-III binding to heparin surface [3]
1 | CC(=O)NC1C(OC2C(C(=O)O)OC(OC3C(COS(=O)(=O)O)OC(OC4C(C(=O)O)OC(OC5C(COS(=O)(=O)O)OC(OC6C(C(=O)O)OC(OC7C(COS(=O)(=O)O)OC(OCCCCCN)C(NS(=O)(=O)O)C7O)C(OS(=O)(=O)O)C6O)C(NS(=O)(=O)O)C5O)C(OS(=O)(=O)O)C4O)C(NS(=O)(=O)O)C3O)C(O)C2O)OC(Cn2cc(CCC(=O)NCCCCCOC3OC(COS(=O)(=O)O)C(OC4OC(C(=O)O)C(OC5OC(COS(=O)(=O)O)C(OC6OC(C(=O)O)C(OC7OC(COS(=O)(=O)O)C(OC8OC(C(=O)O)C(O)C(O)C8O)C(O)C7NS(=O)(=O)O)C(O)C6OS(=O)(=O)O)C(O)C5NS(=O)(=O)O)C(O)C4OS(=O)(=O)O)C(O)C3NS(=O)(=O)O)nn2)C(O)C1O (stereo not drawn) [Compound 4] | > 10 |  |  |  |  |  |  | 
2 | NCCCCCOC1OC(COS(=O)(=O)O)C(OC2OC(C(=O)O)C(OC3OC(COS(=O)(=O)O)C(OC4OC(C(=O)O)C(OC5OC(COS(=O)(=O)O)C(OC6OC(C(=O)O)C(O)C(O)C6O)C(O)C5NS(=O)(=O)O)C(O)C4OS(=O)(=O)O)C(O)C3NS(=O)(=O)O)C(O)C2OS(=O)(=O)O)C(O)C1NS(=O)(=O)O (stereo not drawn) [Compound 1, GlcA-GlcNS6S-IdoA2S-GlcNS6S-IdoA2S-GlcNS6S] | > 50 | 70 | failed to invoke substantial inhibition | no inhibition was detected | no inhibition was observed | failed to invoke any inhibition | no toxicity | no inhibitory potential
